Test results taken from the NIST ThermoML archive (doi:10.1016/j.fluid.2004.12.009).
Numbers after ± are expanded uncertainties.

Key:
[1] = 298.15 K, Drop volume
[2] = xn = mol fraction of the nth substance listed; details: 298.15 K, Drop volume

With `Cc1ccccc1C` [1,2-dimethylbenzene] the surface tension liquid-gas [1] was 29.27 ± 0.21 mN/m.

With `Cc1cccc(C)c1` [1,3-dimethylbenzene] the surface tension liquid-gas [1] was 28.03 ± 0.21 mN/m.

`Cc1ccc(C)cc1` [1,4-dimethylbenzene] gave a surface tension liquid-gas [1] of 27.7 ± 0.21 mN/m.

`CCCOC(=O)CC` [propyl propanoate] gave a surface tension liquid-gas [1] of 24.1 ± 0.19 mN/m.

For `CCCOC(=O)CC` [propyl propanoate] + Cc1ccc(C)cc1, the surface tension liquid-gas ([2]; x1 = 0.061) was 27.46 ± 0.2 mN/m, the surface tension liquid-gas ([2]; x1 = 0.0898) was 27.35 ± 0.2 mN/m and the surface tension liquid-gas ([2]; x1 = 0.1545) was 27.09 ± 0.2 mN/m. For the same molecule, the surface tension liquid-gas ([2]; x1 = 0.2219) was 26.82 ± 0.2 mN/m, the surface tension liquid-gas ([2]; x1 = 0.2558) was 26.69 ± 0.2 mN/m and the surface tension liquid-gas ([2]; x1 = 0.3257) was 26.42 ± 0.2 mN/m. The surface tension liquid-gas ([2]; x1 = 0.388) was 26.18 ± 0.2 mN/m, the surface tension liquid-gas ([2]; x1 = 0.4204) was 26.07 ± 0.2 mN/m and the surface tension liquid-gas ([2]; x1 = 0.4851) was 25.83 ± 0.2 mN/m. For the same molecule, the surface tension liquid-gas ([2]; x1 = 0.5211) was 25.71 ± 0.2 mN/m, the surface tension liquid-gas ([2]; x1 = 0.5809) was 25.5 ± 0.19 mN/m and the surface tension liquid-gas ([2]; x1 = 0.6209) was 25.38 ± 0.19 mN/m. It also gave a surface tension liquid-gas ([2]; x1 = 0.6846) of 25.17 ± 0.19 mN/m, a surface tension liquid-gas ([2]; x1 = 0.7187) of 25.07 ± 0.19 mN/m and a surface tension liquid-gas ([2]; x1 = 0.7976) of 24.82 ± 0.19 mN/m. For the same molecule, the surface tension liquid-gas ([2]; x1 = 0.8562) was 24.62 ± 0.19 mN/m, the surface tension liquid-gas ([2]; x1 = 0.8779) was 24.56 ± 0.19 mN/m and the surface tension liquid-gas ([2]; x1 = 0.9544) was 24.28 ± 0.19 mN/m.

With `CCCOC(=O)CC` [propyl propanoate] + Cc1cccc(C)c1 the surface tension liquid-gas ([2]; x1 = 0.0621) was 27.69 ± 0.21 mN/m, the surface tension liquid-gas ([2]; x1 = 0.0989) was 27.5 ± 0.21 mN/m and the surface tension liquid-gas ([2]; x1 = 0.1636) was 27.19 ± 0.2 mN/m. For the same molecule, the surface tension liquid-gas ([2]; x1 = 0.2293) was 26.88 ± 0.2 mN/m, the surface tension liquid-gas ([2]; x1 = 0.2608) was 26.74 ± 0.2 mN/m and the surface tension liquid-gas ([2]; x1 = 0.3264) was 26.45 ± 0.2 mN/m. The surface tension liquid-gas ([2]; x1 = 0.4215) was 26.07 ± 0.2 mN/m, the surface tension liquid-gas ([2]; x1 = 0.6132) was 25.34 ± 0.19 mN/m and the surface tension liquid-gas ([2]; x1 = 0.7485) was 24.86 ± 0.19 mN/m. It also gave a surface tension liquid-gas ([2]; x1 = 0.7827) of 24.74 ± 0.19 mN/m, a surface tension liquid-gas ([2]; x1 = 0.8542) of 24.52 ± 0.19 mN/m and a surface tension liquid-gas ([2]; x1 = 0.8896) of 24.41 ± 0.19 mN/m.

`CCCOC(=O)CC` [propyl propanoate] + Cc1ccccc1C showed a surface tension liquid-gas ([2]; x1 = 0.0587) of 28.88 ± 0.21 mN/m, a surface tension liquid-gas ([2]; x1 = 0.0915) of 28.66 ± 0.21 mN/m and a surface tension liquid-gas ([2]; x1 = 0.1548) of 28.27 ± 0.21 mN/m. The surface tension liquid-gas ([2]; x1 = 0.2236) was 27.85 ± 0.21 mN/m, the surface tension liquid-gas ([2]; x1 = 0.2531) was 27.68 ± 0.21 mN/m and the surface tension liquid-gas ([2]; x1 = 0.3216) was 27.3 ± 0.2 mN/m. It also gave a surface tension liquid-gas ([2]; x1 = 0.3862) of 26.95 ± 0.2 mN/m, a surface tension liquid-gas ([2]; x1 = 0.4212) of 26.77 ± 0.2 mN/m and a surface tension liquid-gas ([2]; x1 = 0.4836) of 26.45 ± 0.2 mN/m. The surface tension liquid-gas ([2]; x1 = 0.517) was 26.29 ± 0.2 mN/m, the surface tension liquid-gas ([2]; x1 = 0.5814) was 25.98 ± 0.2 mN/m and the surface tension liquid-gas ([2]; x1 = 0.6503) was 25.64 ± 0.2 mN/m. For the same molecule, the surface tension liquid-gas ([2]; x1 = 0.6829) was 25.49 ± 0.19 mN/m, the surface tension liquid-gas ([2]; x1 = 0.7507) was 25.17 ± 0.19 mN/m and the surface tension liquid-gas ([2]; x1 = 0.7823) was 25.03 ± 0.19 mN/m. It also gave a surface tension liquid-gas ([2]; x1 = 0.8909) of 24.54 ± 0.19 mN/m and a surface tension liquid-gas ([2]; x1 = 0.9636) of 24.23 ± 0.19 mN/m.
